Measured values as given in patent US7342012B2, “Inhibitors of αLβ2 mediated cell adhesion” (Mitsubishi Tanabe Pharma Corporation, priority 1999, dated 2008).

Question: Which melting point does the source give for `O=C1N(c2cc(Cl)nc(Cl)c2)C(=O)C2(Cc3cccc([N+](=O)[O-])c3)CCCN12` (stereo not drawn) [Example 239, 5-(3-Nitrobenzyl)-3-(2,6-dichloro-4-pyridyl)-1,3-diazacyclo[3.3.0]octane-2,4-dione] here?
Answer: Its melting point is 182.8 °C.

Question: Which melting point does the source give for `N#Cc1ccc(CC23CCCN2C(=O)N(c2cc(Cl)cc(Cl)c2N)C3=O)cc1` (stereo not drawn) [Example 240, 5-(4-Cyanobenzyl)-3-(2-amino-3,5-dichlorophenyl)-1,3-diazabicyclo[3.3.0]octane-2,4-dione] here?
Answer: Its melting point is 122.2 °C.

Question: Which melting point does the source give for `COC(=O)N[C@@H]1CN2C(=O)N(c3cc(Cl)nc(Cl)c3)C(=O)[C@@]2(Cc2ccc(OC(F)(F)F)cc2)C1` [Example 250, (5R, 7S)-5-[4-(Trifluoromethoxy)benzyl]-3-(2,6-dichloro-4-pyridyl)-7-methoxycarbonylamino-1,3-diazabicyclo[3.3.0]octane-2,4-dione] here?
Answer: The melting point was 119.8 °C.

Question: For `NCC(=O)N[C@@H]1CN2C(=O)N(c3cc(Cl)nc(Cl)c3)C(=O)[C@@]2(Cc2ccc(OC(F)(F)F)cc2)C1` [Example 252, (5R, 7S)-5-[4-(Trifluoromethoxy)benzyl]-3-(2,6-dichloro-4-pyridyl)-7-aminoacetylamino-1,3-diazabicyclo[3.3.0]octane-2,4-dione], which melting point is on record?
Answer: Its melting point is 114 °C.

Question: Which melting point does the source give for `CS(=O)(=O)NCC(=O)N[C@@H]1CN2C(=O)N(c3cc(Cl)nc(Cl)c3)C(=O)[C@@]2(Cc2ccc(OC(F)(F)F)cc2)C1` [Example 253, (5R, 7S)-5-[4-(Trifluoromethoxy)benzyl]-3-(2,6-dichloro-4-pyridyl)-7-[(methansulfonylaminoacetyl)amino]-1,3-diazabicyclo[3.3.0]octane-2,4-dione] here?
Answer: The melting point was 104.9 °C.

Question: With `CS(=O)(=O)N[C@@H]1CN2C(=O)N(c3cc(Cl)nc(Cl)c3)C(=O)[C@@]2(Cc2ccc(OC(F)(F)F)cc2)C1` [Example 254, (5R, 7S)-5-[4-(Trifluoromethoxy)benzyl]-3-(2,6-dichloro-4-pyridyl)-7-methanesulfonylamino-1,3-diazabicyclo[3.3.0]octane-2,4-dione] as the compound, how does the melting point read?
Answer: Its melting point is 207.2 °C.

Question: Which melting point does the source give for `NC(=O)C(N)CC(=O)N[C@@H]1CN2C(=O)N(c3cc(Cl)nc(Cl)c3)C(=O)[C@@]2(Cc2ccc(OC(F)(F)F)cc2)C1` (stereo partly drawn) [Example 255, (5R, 7S)-5-[4-(Trifluoromethoxy)benzyl]-3-(2,6-dichloro-4-pyridyl)-7-[(3-carbamoyl-3-aminopropanoyl)amino]-1,3-diazabicyclo[3.3.0]octane-2,4-dione] here?
Answer: Its melting point is 107.8 °C.

Question: Which melting point does the source give for `CC(=O)NC(CC(=O)N[C@@H]1CN2C(=O)N(c3cc(Cl)nc(Cl)c3)C(=O)[C@@]2(Cc2ccc(OC(F)(F)F)cc2)C1)C(N)=O` (stereo partly drawn) [Example 256, (5R, 7S)-5-[4-(Trifluoromethoxy)benzyl]-3-(2,6-dichloro-4-pyridyl)-7-[(3-carbamoyl-3-acetylaminopropanoyl)amino]-1,3-diazabicyclo[3.3.0]octane-2,4-dione] here?
Answer: The melting point was 152.8 °C.

Question: For `O=C1N(c2cc(Cl)cc(Cl)c2)C(=O)C2(Cc3ccccc3)CCCN12` (stereo not drawn) [Example 267], which melting point is on record?
Answer: Its melting point is 173.8 °C.

Question: With `NC1CN2C(=O)N(c3cc(Cl)nc(Cl)c3)C(=O)C2(Cc2ccc(OC(F)(F)F)cc2)C1` (stereo not drawn) [Example 281] as the compound, how does the melting point read?
Answer: The melting point was 123.5 °C.

Question: For `CC(=O)NC1CN2C(=O)N(c3cc(Cl)nc(Cl)c3)C(=O)C2(Cc2ccc(OC(F)(F)F)cc2)C1` (stereo not drawn) [Example 283], which melting point is on record?
Answer: The melting point was 122.7 °C.

Question: Which melting point does the source give for `CCCCC(=O)N[C@@H]1CN2C(=O)N(c3cc(Cl)nc(Cl)c3)C(=O)[C@@]2(Cc2ccc(OC(F)(F)F)cc2)C1` [Example 286, (5R, 7S)-5-[4-(Trifluoromethoxy)benzyl]-3-(2,6-dichloro-4-pyridyl)-7-valerylamino-1,3-diazabicyclo[3.3.0]octane-2,4-dione] here?
Answer: Its melting point is 66.8 °C.

Question: Which melting point does the source give for `NC(=O)N[C@@H]1CN2C(=O)N(c3cc(Cl)nc(Cl)c3)C(=O)[C@@]2(Cc2ccc(OC(F)(F)F)cc2)C1` [Example 287, (5R, 7S)-5-[4-(Trifluoromethoxy)benzyl]-3-(2,6-dichloro-4-pyridyl)-7-ureido-1,3-diazabicyclo[3.3.0]octane-2,4-dione] here?
Answer: The melting point was 141.7 °C.

Question: Which melting point does the source give for `Cc1cc([C@H]2CN3C(=O)N(c4cc(Cl)nc(Cl)c4)C(=O)[C@]3(Cc3ccc(OC(F)(F)F)cc3)C2)c(C)[nH]1` [Example 288, (5R, 7S)-5-[4-(Trifluoromethoxy)benzyl]-3-(2,6-dichloro-4-pyridyl)-7-(2,5-dimethylpyrrolyl)-1,3-diazabicyclo[3.3.0]octane-2,4-dione] here?
Answer: Its melting point is 112.4 °C.

Question: Which melting point does the source give for `CC(=O)N[C@@H]1CN2C(=O)N(c3cc(Cl)cc(Cl)c3)C(=O)[C@]2(Cc2ccc(OC(F)(F)F)cc2)C1` [Example 291] here?
Answer: The melting point was 61.2 °C.

Question: With `N[C@@H]1CN2C(=O)N(c3cc(Cl)cc(Cl)c3)C(=O)[C@@]2(Cc2ccc(OC(F)(F)F)cc2)C1` [Example 300, (5R, 7S)-5-[4-(Trifluoromethoxy)benzyl]-3-(3,5-dichlorophenyl)-7-amino-1,3-diazabicyclo[3.3.0]octane-2,4-dione] as the compound, how does the melting point read?
Answer: The melting point was 43.3 °C.

Question: With `CN(C)CCCC(=O)N[C@@H]1CN2C(=O)N(c3cc(Cl)cc(Cl)c3)C(=O)[C@@]2(Cc2ccc(OC(F)(F)F)cc2)C1` [Example 302, (5R, 7S)-5-[4-(Trifluoromethoxy)benzyl]-3-(3,5-dichlorophenyl)-7-[[4-(dimethylamino)butyryl]amino]-1,3-diazabicyclo[3.3.0]octane-2,4-dione] as the compound, how does the melting point read?
Answer: The melting point was 57.9 °C.

Question: For `O=C1N(c2cc(Cl)cc(Cl)c2)C(=O)C2(Cc3ccc([S+]([O-])C(F)(F)F)cc3)CCCN12` (stereo not drawn) [Example 310], which melting point is on record?
Answer: Its melting point is 63.5 °C.

Question: With `O=C1N(c2cc(Cl)cc(Cl)c2)C(=O)C2(Cc3ccc(S(=O)(=O)C(F)(F)F)cc3)CCCN12` (stereo not drawn) [Example 311] as the compound, how does the melting point read?
Answer: Its melting point is 72.5 °C.

Question: For `NC(=O)[C@H]1CN2C(=O)N(c3cc(Cl)cc(Cl)c3)C(=O)[C@]2(Cc2ccc(OC(F)(F)F)cc2)C1` [Example 312, (5R, 7R)-5-[4-(Trifluoromethoxy)benzyl]-3-(3,5-dichlorophenyl)-7-carbamoyl-1,3-diazabicyclo[3.3.0]octane-2,4-dione], which melting point is on record?
Answer: The melting point was 122.7 °C.

Question: With `CN(C)C(=O)C1CN2C(=O)N(c3cc(Cl)cc(Cl)c3)C(=O)C2(Cc2ccc(OC(F)(F)F)cc2)C1` (stereo not drawn) [Example 313] as the compound, how does the melting point read?
Answer: The melting point was 106.1 °C.

Question: With `CNC(=O)C1CN2C(=O)N(c3cc(Cl)cc(Cl)c3)C(=O)C2(Cc2ccc(OC(F)(F)F)cc2)C1` (stereo not drawn) [Example 314] as the compound, how does the melting point read?
Answer: Its melting point is 212.6 °C.

Question: With `NC(=O)C1CN2C(=O)N(c3cc(Cl)cc(Cl)c3)C(=O)C2(Cc2ccc(OC(F)(F)F)cc2)C1` (stereo not drawn) [Example 317] as the compound, how does the melting point read?
Answer: The melting point was 140.3 °C.

Question: Which melting point does the source give for `CNC(=O)C1CN2C(=O)N(c3cc(Cl)cc(Cl)c3)C(=O)C2(Cc2ccc(OC(F)(F)F)cc2)C1` (stereo not drawn) [Example 319] here?
Answer: Its melting point is 122.7 °C.
